These are literature values, as cited in patent US6310180A, “Method for synthesis of proteins” (Vanderbilt University, priority 1995, dated 2001).

This series concerns the target HIV-1 protease (Human immunodeficiency virus type 1 group M subtype B, UniProt P03369). To be noted: aspartic protease inhibitor "has been shown to inhibit the HIV-1 protease"; added to the ligation solution to prevent autoproteolysis.

pKi: −log10 of the molar value. Square brackets hold non-standard residues; d marks the D form. Peptide text beside a SMILES is read from it. Sta = CC(C)C[C@H](N)[C@@H](O)CC(=O)O

For `CC(=O)N[C@H](C(=O)N[C@H](C(=O)N[C@@H](CC(C)C)[C@@H](O)CC(=O)N[C@@H](C)C(=O)N[C@@H](CC(C)C)[C@@H](O)CC(=O)O)C(C)C)C(C)C` [acetyl-pepstatin] (Ac-VV[Sta]A[Sta]-OH), the pKi (usually −log10 of the Ki, conventionally taken in molar units) is 1.70.
